Measurements published in ChEMBL document CHEMBL5634089, “Design, synthesis and evaluation of 2-pyrimidinylindole derivatives as anti-obesity agents by regulating lipid metabolism” (Eur J Med Chem, 2023).
Converted amounts (≈) assume the structure as drawn. The source made the active and inactive calls. The rule behind the calls is not given here.

Columns and labels:
[1] = system: 3T3-L1; test: Anti-adipogenic activity in mouse 3T3-L1 cells assessed as lipid-lowering activity at 1 uM measured after 9 days by Oil Red O staining based microplate reader analysis relative to control; format: functional; conditions: time 9 day
[2] = Half life in Sprague-Dawley rat at 2 mg/kg, iv administered for 24 hrs by LC-MS/MS analysis; format: ADME, organism-based; conditions: in vivo
[3] = Cytotoxicity against mouse 3T3-L1 cells assessed as reduction in cell viability incubated for 24 hrs by Sulforhodamine B assay; format: toxicity, cell-based
[4] = Therapeutic index, ratio of IC50 for cytotoxicity against mouse 3T3-L1 cells to EC50 for anti-adipogenic in mouse 3T3-L1 cells; format: toxicity, cell-based; conditions: read-out: Ratio IC50/EC50
[5] = AUC (0 to t) in Sprague-Dawley rat at 2 mg/kg, iv administered for 24 hrs by LC-MS/MS analysis; format: ADME, organism-based; conditions: in vivo
[6] = AUC (0 to infinity) in Sprague-Dawley rat at 2 mg/kg, iv administered for 24 hrs by LC-MS/MS analysis; format: ADME, organism-based; conditions: in vivo
[7] = MRT (0 to t) in Sprague-Dawley rat at 2 mg/kg, iv administered for 24 hrs by LC-MS/MS analysis; format: ADME, organism-based; conditions: in vivo
[8] = Half life in Sprague-Dawley rat at 20 mg/kg, po administered for 24 hrs by LC-MS/MS analysis; format: ADME, organism-based; conditions: in vivo
[9] = Cmax in Sprague-Dawley rat at 20 mg/kg, po administered for 24 hrs by LC-MS/MS analysis; format: ADME, organism-based; conditions: in vivo
[10] = AUC (0 to t) in Sprague-Dawley rat at 20 mg/kg, po administered for 24 hrs by LC-MS/MS analysis; format: ADME, organism-based; conditions: in vivo
[11] = AUC (0 to infinity) in Sprague-Dawley rat at 20 mg/kg, po administered for 24 hrs by LC-MS/MS analysis; format: ADME, organism-based; conditions: in vivo
[12] = MRT (0 to t) in Sprague-Dawley rat at 20 mg/kg, po administered for 24 hrs by LC-MS/MS analysis; format: ADME, organism-based; conditions: in vivo
[13] = Apparent volume of distribution during terminal phase in Sprague-Dawley rat at 20 mg/kg, po administered for 24 hrs by LC-MS/MS analysis; format: ADME, organism-based; conditions: in vivo, read-out: Vz/F
[14] = Oral bioavailability (0 to t) in Sprague-Dawley rat at 20 mg/kg administered for 24 hrs by LC-MS/MS analysis; format: ADME, organism-based; conditions: in vivo
[15] = Oral bioavailability (0 to infinity) in Sprague-Dawley rat at 20 mg/kg administered for 24 hrs by LC-MS/MS analysis; format: ADME, organism-based; conditions: in vivo
[16] = Aqueous solubility of compound incubated for 24 hrs by HPLC analysis; format: physicochemical; conditions: aqueous medium
[17] = system: Mus musculus; test: Anti-obesity activity in high-fat and high-cholesterol diet induced C57BL/6J mouse assessed as reduction in fat mass at 20 mg/kg, ip administered every day for 6 weeks; format: functional, organism-based
[18] = system: Adipocyte; test: Anti-adipogenic activity against mouse […] Adipocytes assessed as lipid-lowering activity by Oil Red O staining based microplate reader analysis; format: functional, cell-based
[19] = system: Mus musculus; test: Anti-obesity activity in high-fat and high-cholesterol diet induced C57BL/6J mouse assessed as reduction in triglyceride level at 20 mg/kg, ip administered every day for 6 weeks; format: functional, organism-based
[20] = system: Mus musculus; test: Anti-obesity activity in high-fat and high-cholesterol diet induced C57BL/6J mouse assessed as improvement in glucose tolerance at 20 mg/kg, ip measured after 3 weeks by GTT analysis; format: functional, organism-based
[21] = system: Mus musculus; test: Anti-obesity activity in high-fat and high-cholesterol diet induced C57BL/6J mouse assessed as attenuation of insulin resistance at 20 mg/kg, ip measured after 5 weeks by ITT analysis; format: functional, organism-based
[22] = system: Mus musculus; test: Anti-obesity activity in high-fat and high-cholesterol diet induced C57BL/6J mouse assessed as attenuation of inflammation in liver at 20 mg/kg, ip administered everyday for 6 weeks by hematoxylin and eosin staining based microscopic analysis; format: functional, organism-based
[23] = system: Mus musculus; test: Anti-obesity activity in high-fat and high-cholesterol diet induced C57BL/6J mouse assessed as attenuation of hepatocyte ballooning at 20 mg/kg, ip administered every day for 6 weeks by […] staining based microscopic analysis; format: functional, organism-based
[24] = system: Mus musculus; test: Anti-obesity activity in high-fat and high-cholesterol diet induced C57BL/6J mouse assessed as reduction in liver damage by measuring reduction in alanine aminotransferase level in serum at 20 mg/kg, ip administered every day for 6 weeks; format: functional, organism-based
[25] = system: Mus musculus; test: Anti-obesity activity in high-fat and high-cholesterol diet induced C57BL/6J mouse assessed as reduction in liver damage by measuring reduction in alkaline phosphatase level in serum at 20 mg/kg, ip administered every day for 6 weeks; format: functional, organism-based
[26] = system: Mus musculus; test: Anti-obesity activity in high-fat and high-cholesterol diet induced C57BL/6J mouse assessed as reduction in liver damage by measuring reduction in cholinesterase level in serum at 20 mg/kg, ip administered every day for 6 weeks; format: functional, organism-based
[27] = system: Mus musculus; test: Anti-obesity activity in high-fat and high-cholesterol diet induced C57BL/6J mouse assessed as reduction in liver damage by measuring reduction in LDH level in serum at 20 mg/kg, ip administered every day for 6 weeks; format: functional, organism-based
[28] = system: 3T3-L1; test: Anti-adipogenic activity in mouse 3T3-L1 cells assessed as lipid-lowering activity during the adipogenesis stage at 0.2 to 1.0 uM measured after 0 to 3 days; format: functional, cell-based; conditions: dose 0.2-1 µM, time 0-3 day
[29] = system: 3T3-L1; test: Anti-adipogenic activity against mouse 3T3-L1 cells assessed as change in phosphorylated AMPK alpha level; format: functional, cell-based
[30] = system: 3T3-L1; test: Anti-adipogenic activity against mouse 3T3-L1 cells assessed as decrease in PPAR gamma mRNA expression at 0.2 to 0.8 uM incubated for 3 days by RT-PCR analysis; format: functional, cell-based; conditions: dose 0.2-0.8 µM, time 3.0 day
[31] = system: 3T3-L1; test: Anti-adipogenic activity against mouse 3T3-L1 cells assessed as decrease in C/EBP alpha mRNA expression at 0.2 to 0.8 uM incubated for 3 days by RT-PCR analysis; format: functional, cell-based; conditions: dose 0.2-0.8 µM, time 3.0 day
[32] = system: 3T3-L1; test: Anti-adipogenic activity against mouse 3T3-L1 cells assessed as decrease in Scd1 mRNA expression at 0.2 to 0.8 uM incubated for 3 days by RT-PCR analysis; format: functional, cell-based; conditions: dose 0.2-0.8 µM, time 3.0 day
[33] = system: 3T3-L1; test: Anti-adipogenic activity against mouse 3T3-L1 cells assessed as decrease in Elovl6 mRNA expression at 0.2 to 0.8 uM incubated for 3 days by RT-PCR analysis; format: functional, cell-based; conditions: dose 0.2-0.8 µM, time 3.0 day
[34] = system: 3T3-L1; test: Anti-adipogenic activity against mouse 3T3-L1 cells assessed as increase in Cpt1 alpha mRNA expression at 0.2 to 0.8 uM incubated for 3 days by RT-PCR analysis; format: functional, cell-based; conditions: dose 0.2-0.8 µM, time 3.0 day
[35] = system: 3T3-L1; test: Anti-adipogenic activity against mouse 3T3-L1 cells assessed as increase in Acsl1 mRNA expression at 0.2 to 0.8 uM incubated for 3 days by RT-PCR analysis; format: functional, cell-based; conditions: dose 0.2-0.8 µM, time 3.0 day
[36] = system: Mus musculus; test: Inhibition of lipid synthesis in high-fat and high-cholesterol diet induced C57BL/6J mouse assessed as downregulation of ACC protein expression at 20 mg/kg, ip administered for 6 weeks by Western blotting analysis; format: functional, organism-based
[37] = system: 3T3-L1; test: Anti-adipogenic activity against mouse 3T3-L1 cells assessed as decrease in ATP citrate lyase mRNA expression at 0.2 to 0.8 uM incubated for 3 days by RT-PCR analysis; format: functional, cell-based; conditions: dose 0.2-0.8 µM, time 3.0 day

Compound: CC(=O)c1c(-c2nccc(NCCN3CCCC3)n2)[nH]c2ccccc12
- Activity [1]: 100.7%
- half-life [2]: 1.9 h
- IC50 at 24 h [3]: 27 µM
- selectivity ratio [4]: 255
- AUC(0-t) at 24 h [5]: 219 ng·h/mL
- AUC(0-inf) [6]: 225 ng·h/mL
- MRT last at 24 h [7]: 1.6 h
- half-life [8]: 2.9 h
- Cmax [9]: 168 ng/mL
- AUC(0-t) at 24 h [10]: 1380 ng·h/mL
- AUC(0-inf) [11]: 1470 ng·h/mL
- MRT last at 24 h [12]: 5.2 h
- Vd/F [13]: 65.2 L/kg
- bioavailability [14]: 63%
- bioavailability [15]: 65.5%
- solubility at 24 h [16]: 161 µg/mL (≈ 461 µM)
- Activity [17]: Active
- EC50 [18]: 0.289 µM
- Activity [19]: Active
- Activity [20]: Active
- Activity [21]: Active
- Activity [22]: Active
- Activity [23]: Active
- Activity [24]: Active
- Activity [25]: Active
- Activity [26]: Active
- Activity [27]: Active
- Activity [28]: Active
- Activity [29]: inactive
- Activity [30]: Active
- Activity [31]: Active
- Activity [32]: Active
- Activity [33]: Active
- Activity [34]: Active
- Activity [35]: Active
- inhibition [36]: Active
- Activity [37]: Active
